In US20080207502A1, “Anti-Angiogenic Peptides and Methods of Use Thereof” (SOPHERION THERAPEUTICS, INC., priority 2004, published 2008):

What was measured:
[1] = Heparin binding activity by liquid chromatography on Hi Trap Heparin HP column (NaCl elution); settings: step gradient 500-1000 mM NaCl in 10 mM NaH2PO4 pH 7
Excerpt: Liquid chromatography was used to determine the relative levels of heparin binding activity of the individual heparin binding domains and of the anti-angiogenic miniproteins that contains them. In this assay, the strength of the heparin binding activity is proportional to the amount of NaCl that is required to elute the peptide bound to the heparin column. Peptides with low binding activity are eluted with lower NaCl concentration, whereas higher concentrations of NaCl are required for peptides with higher binding activity.
Hi Trap Heparin HP column (1 ml, Amersham Biosciences) was equilibrated with 10 column volumes (CV) of equilibration (EQ) buffer=10 mM NaH2PO4pH 7. All buffers were loaded onto columns via syringes. 500 μl fractions are collected (flow rate=1 ml/minute). 500 μg of peptide (1 mg/ml, resuspended in EQ buffer) was added to each column and the flow through was collected for analysis. The columns were then washed with 3 CV of EQ buffer. Peptides are then eluted with a step gradient of 500, 625, 750, 875 mM NaCl in EQ buffer, 2 CV per each step. A final step of 3 CV of 1000 mM NaCl in EQ buffer was collected in 500 μl fractions. The A210 nm was measured using EQ and elution buffers as blanks.

[2] = Biological activity of D-amino acid versions of ST100,038 (assay not specified); settings: ST100,045 tested against ST100,059 and a control
Procedure: D-amino acid peptides can be made by generating a D-amino acid peptide with the same sequence as a L-amino acid peptide or by preparing a retro inverso form of a peptide. ST100,045 (SEQ ID NO.: 31) has the same sequence as ST100,038 (SEQ ID NO.: 29) was tested against ST100,059 (SEQ ID NO.: 30) which is the retro inverso version of ST100,038 and a control.

[3] = test system: Bovine Retinal Endothelial Cells (BRE); assay: VEGF-mediated survival/proliferation of BRE cells (WST1); type: cell-based; settings: increasing doses, FIG. 5
Procedure: (§1) The anti-angiogenic activities of the peptides were tested by measuring the level of inhibition of VEGF and bFGF mediated survival/proliferation of Bovine Retinal Endothelial Cells (BRE), Human Dermal Microvasculature Endothelial Cells, and Human Umbilical Vein Endothelial Cells, all of which are standard cell lines used to test anti-angiogenic compounds.
Bovine retinal endothelial (BRE) cells were maintained in Cambrex EG2 media. For non-adherent cell assays, on day one cells were starved for either 6 hours or overnight, then trypsinized and plated in 96-well plates in 100 μl of Optimem plus 1% fetal bovine serum (FBS). One hundred μl of Optimem plus 1% FBS was added to the wells containing, where appropriate, VEGF to a final concentration of 25 ng/ml, and the various peptides to final concentrations as described. For adherent cells, cells were plated in 96-well plates in complete media, allowed to adhere overnight, washed in starvation media (Optimem plus 1% FBS) and then starved during the day. At the end of the day, 100 μl of Optimem plus 1% FBS was added to the wells containing, where appropriate, VEGF to a final concentration of 25 ng/ml and the various peptides to final concentrations as described.
(§2) In all cases, after 72 hours incubation, the amount of live cells in each well was measured with the WST1 assay (Roche).

B16 melanoma tumor = assay: Subcutaneous B16 melanoma tumor model in vivo; design: species or system mouse; settings: 20 mg/kg daily IP, vs untreated controls, FIG. 12
Procedure: Because of the importance of the angiogenic process for tumorigenesis, miniproteins as described herein, were hypothesized to show good anti-tumor activity. The peptides of the invention were tested in an in vivo model of anti-tumor activity. This model compares the growth of sub cutaneous B16 melanoma tumor in vivo either untreated or treated with various amount of miniproteins described in this application. This model is widely accepted in the art as a model to test the anti-tumor activity of compounds that inhibit tumor growth because they have anti-angiogenic activity.
Male C57BL/6 mice were obtained with a mean body weight of 20±2 g. Mouse B16-F1 melanoma cells were implanted subcutaneously (5×10^5 cell per animal). Peptides (formulated in water) were administered ip daily at the amount indicated starting the day after cells injection. In general, tumors became palpable around 9 days after injection of cells. Tumor were then measured every 2 days.

[4] = test system: RPMI-8226 human myeloma xenografts; assay: RPMI-8226 human myeloma subcutaneous xenograft model in scid mice; type: in vivo; settings: vs untreated controls, FIG. 16
Procedure: Anti-tumor efficacy of test peptides was evaluated against RPMI-8226 human myeloma xenografts implanted subcutaneously (sc) in severe compromised immunodeficient (scid) mice.
Studies generally consisted of randomly-assigned groups of 8 or 10 mice per group, which were implanted sc with myeloma fragments (30-40 mg). In addition to groups tested with test peptides, studies usually included a vehicle-treated control group and a positive control group treated with an agent known to be active in the RPMI-8226 model. In one type of schedule, mice were treated IP with either vehicle or test peptides starting one day after tumor implantation (implantation day defined as Day 0). Test peptides and vehicle were generally administered IP daily for 3-4 weeks.
Dosing solutions of the test peptides were prepared weekly and kept at −20° C. between injections. […] Each tumor was measured by caliper in two dimensions and converted to tumor mass using the formula for a prolate ellipsoid (a X b^2/2), where a is the longer dimension and b is the smaller dimension, and assuming unit density (1 mm^3=1 mg). Tumor measurements were recorded twice weekly. Body weights were also recorded twice weekly. Anti-tumor activity was assessed by the delay in tumor growth of the treated groups in comparison to the vehicle-treated control group, partial and complete regressions, and tumor-free survivors. […]

[5] = test system: human dermal microvasculature endothelial cells; assay: VEGF mediated survival/proliferation in human dermal microvasculature endothelial cells; type: cell-based; settings: 30, 100, and 200 μg/ml, FIG. 8
Procedure: as §1, §2
(§3) In a further experiment, the anti-angiogenic activity of peptide ST100,061 (SEQ ID NO.: 3), a derivative of ST100,032 (SEQ ID NO.: 1), at concentrations of 30, 100, and 200 μg/ml was tested by measuring the level of inhibition of VEGF and bFGF mediated survival/proliferation in human dermal microvasculature endothelial cells.

[6] = test system: human dermal microvasculature endothelial cells; assay: bFGF mediated survival/proliferation in human dermal microvasculature endothelial cells; type: cell-based; settings: 30, 100, and 200 μg/ml, FIG. 8
Procedure: as §1, §2, §3

[7] = test system: Human Umbilical Vein Endothelial Cells; assay: bFGF-mediated survival/proliferation of human umbilical vein endothelial cells (WST1); type: cell-based
Procedure: as §1
Human umbilical cord endothelial (HUVEC) cells were maintained in Cambrex EGM-2MV media. On day one, cells were starved overnight in 1% FBS in M200 media (Cascade Biologicals). The morning after, the media were replaced with serum-free media (control) or media containing 25 ng/ml of human VEGF165 and the various peptides to final concentrations as described.
as §2

[8] = test system: mouse leukemia L1210 cells; assay: Tumor cell proliferation (WST-1), L1210; type: cell-based; settings: FIG. 11
Procedure: Peptides to be tested were prepared at a stock concentration of 10 mM in sterile phosphate buffered saline. Cancer cell lines obtained from the American Type Culture Collection (MG-63, HT1080, A498, BxPC3, 786-0, PC-3, B16F1, B16F10, P388D1, Jurkat, MOLT4, THP-1, U-937, L1210, RPMI 8226, NCI H929, U266B1, K562) were cultured under appropriate conditions as described in the literature. Cell culture media and reagents were obtained from ATCC (Manassas, Va.), Invitrogen (Carlsbad, Calif.) or Mediatech (Herndon, Va.). Exponentially growing cultures were used for cell proliferation assays. Adherent cells were plated at a concentration of 100000 cells per milliter in growth media overnight (18-24 h) and treated the next day in a low serum media (growth media with 1% FBS for MG-63, HT1080, A498, BxPC3, PC-3, B16F1, B16F10. 786-0 cells were treated in media with 5% FBS). Suspension cell lines (P388D1, Jurkat, MOLT4, THP-1, U-937, L1210, RPMI 8226, NCI H929, U266B1, and K562) were diluted to a concentration of 100,000 cells per ml and treated on the same day with peptides. Peptides were diluted in treatment media and cells were treated for 48 or 72 hours depending on the cell line. Each dose was tested in triplicate for each experiment, and experiments were repeated for a minimum of three discrete times. After incubation, the relative number of cells was determined using WST-1 (Roche Applied Science). A 9.5 μl aliquot of WST-1 was added to each well. The plate was immediately read at 440 nm using a Bio-Tek PowerWave XS microplate reader, incubated for 2-3 hours at 37° C. and then read again. Cell proliferation was determined as the percent of the control cell proliferation. The absorbance of each well at time 0 was subtracted from the value of the final reading. Afterwards the blank values were averaged and subtracted from each test and control value. Finally, each test absorbance was divided by the average of the control absorbances and multiplied by 100 to obtain the percent of control. […]

L1210 murine leukemia = L1210 murine leukemia intravenous model in vivo; design: species or system mouse; settings: dosed IP, DBA/2 mice, FIG. 15a
Procedure: Antitumor activity of test peptides, administered intraperitoneally (IP), were evaluated against L1210 murine leukemia cells implanted intravenously (IV) in DBA/2 mice.
Studies generally consisted of randomly-assigned groups of 8 mice per group, which were inoculated IV with 1×10^5 cells per mouse from an in vivo leukemia cell line. In addition to groups tested with test peptides, studies usually included a vehicle-treated control group and a positive control group treated with an agent known to be active in the L1210 leukemia model. Starting one day after tumor inoculation (inoculation day defined as Day 0), mice were treated IP with either vehicle or test peptides in various schedules. Generally this consisted of treatment every other day for approximately 1 week (e.g., Days 1, 3, 5 and 7). A positive agent (e.g., cyclophosphamide) was usually given as a single IP injection on Day 1. All dosing solutions were prepared on each day of treatment. Survival was monitored daily and body weights were measured twice weekly. Anti-tumor activity was assessed by the increase in lifespan of the treated groups in comparison to the vehicle-treated control group. Studies with the L1210 leukemia model were limited to 30 days.

PSQSSHPPLSTA (listed as Homo sapiens) [ST100,059]
[NaCl] for elution [1]: 0 mM | biologically active [2]: biologically active | inhibition of VEGF stimulation [3]: inhibited with increasing doses | inhibition of tumor growth (B16 melanoma tumor): clearly inhibit tumor growth | inhibition of tumor growth ([4]; 100 mg/kg daily IP): does not inhibit tumor growth

PYDGRGDSVVYGLRKKKAARGRRAARGRR (listed as Homo sapiens) [ST100,061, a derivative of ST100,032]
inhibition of VEGF mediated survival/proliferation [5]: effective in inhibiting both VEGF and bFGF | inhibition of bFGF mediated survival/proliferation [6]: effective in inhibiting both VEGF and bFGF | inhibition of tumor growth (B16 melanoma tumor): may be less active

RRGRAARRGRAAKKKRLGYVVSDGRGDYP [ST100,064]
inhibition of bFGF mediated survival ([7]; compared with ST100,061, FIG. 9): as effectively as ST100,061 | inhibition of bFGF mediated survival ([7]; comparison of several peptides, FIG. 10): the most active in inhibiting bFGF stimulation | blocked cell proliferation or induced cell death [8]: able to block cell proliferation and induce cell death | mice (cured mice) survived longer than 30 days (L1210 murine leukemia): Sixty to eighty percent | survival (L1210 murine leukemia): statistically significant increases in survival | inhibition of tumor growth ([4]; 25 mg/kg daily IP): able to inhibit tumor growth
